# From PubChem BioAssay AID1117319 (Southern Research Institute, 2015)
# pIC50: −log10 of the molar value. Results filed as inconclusive are left out.
# Biological target: Virion infectivity factor (Human immunodeficiency virus type 1 group M subtype B (isolate BH10)) + Virion infectivity factor (Human immunodeficiency virus type 1 group M subtype B (isolate BRU/LAI)) + Virion infectivity factor (Human immunodeficiency virus type 1 group M subtype B (isolate PCV12)) + Virion infectivity factor (Human immunodeficiency virus type 1 group M subtype B (isolate HXB2)) + DNA dC->dU-editing enzyme APOBEC-3G (Homo sapiens) (UniProt P69720+P69721+P69722+P69723+Q9HC16)
# Experiment: inhibitors of Vif binding to APOBEC3G peptide, primary screen, biochemical, TR-FRET, GST-Vif 1-94, biotin-A3G peptide, dose response retest (AID 1117319);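 also: Vif residues 1-94 fused to GST binding biotinylated APOBEC3G peptide 110-148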
row,SMILES,pIC50
1,Cc1occc1-c1nnc(SCC(=O)N2CCN(c3ccccc3)CC2)n1C,4.25
2,O=C(O)C1Cc2ccccc2N2CCCC12 (stereo unspecified),4.82
3,COc1ccc2nc3ccccc3nc2c1N,5.22
4,Cn1c(SCC(=O)c2cc(Cl)c(Cl)s2)nnc1-c1ccco1,4.51
5,O=C1NC(=S)N(c2ccccc2)C(=O)/C1=C/c1ccco1,5.03
6,CC1OC(CC(=O)O)CC2=C1C(=O)c1c(O)cccc1C2=O (stereo unspecified),5.38
7,C=C(C)C(=O)Nc1cccc(C2=NOC3(C2)C[C@@H](C(N)=O)N(C(=O)CC(c2ccccc2)c2ccccc2)C3)c1 (stereo partly specified),5.51
8,CCOc1ccc(-c2nnn(CC(=O)c3ccc4c(c3)OCCO4)n2)cc1OCC,4.54
9,O=[n+]1c2c(n([O-])c3cc(Cl)ccc31)CCCC2,5.01
10,O=C(/C=C/c1ccc(O)c(O)c1)c1ccc(S(=O)(=O)N2CCCCCC2)cc1,5.64
11,CNc1ccc(Br)cc(C(=O)/C=C/c2ccc3c(c2)OCO3)c1=O,4.66
12,O=C1C=C(N2CC2)c2ccccc2C1=O,4.95
13,O=C1NC(=O)N(c2ccc(Cl)cc2)C(=O)/C1=C\c1ccc(Sc2nc3ccccc3[nH]2)o1,4.93
14,COC(=O)c1ccc(C(=O)OC)c(NC(=O)Cc2cccs2)c1,5.37
15,Cc1ccc(NC(=O)c2cc(-c3ccc(C)o3)nc3ccccc23)nc1,4.47
16,O=C(O)c1ccc(Cl)c2c1C1C=CCC1C(c1ccccn1)N2 (stereo unspecified),6.09
17,Cc1ccc2c(c1)C1C=CCC1C(C(=O)O)N2 (stereo unspecified),6.02
18,COc1ccc(/C=N\NC(=O)c2cc(O)c(O)c(O)c2)cc1CN1CCN(c2ccc(F)cc2)CC1,> 5.61
19,COc1cccc2c1NC(C(=O)O)C1CC=CC21 (stereo unspecified),> 6.40

row,SMILES,pIC50
1,C[n+]1cccc2cccc([O-])c21,5.85
2,O=c1oc2c(O)c(O)cc3c(=O)oc4c(O)c(O)cc1c4c23,6.35
3,CC1=CC(=Nc2c(C)n(C)n(-c3ccccc3)c2=O)C=CC1=O,5.30
4,O=[N+]([O-])c1cc(-c2ccc(/C=N/c3nc4ccccn4c3-c3ccco3)o2)ccc1Cl,5.00
5,CCCCOc1ccc(C(=O)NCC(=O)NCC(=O)OCC)cc1,4.11
6,c1ccc2c(c1)CCCN2Cc1nnc2n1CCCCC2,4.50
7,COc1ccc(N2C3=C(CC4=C2CCCC4=O)C(=O)CCC3)cc1,4.58
8,O=C(NCCc1ccccc1)c1ccc2nc(-c3ccco3)c(-c3ccco3)nc2c1,5.52
9,Cc1ccc(-c2ccc(CCC(=O)O)n2NC(N)=S)cc1,4.94
10,NS(=O)(=O)c1ccc(N/N=C/c2ccc(O)c(O)c2O)c([N+](=O)[O-])c1,6.04
11,Cc1cc(C(F)(F)F)n2nc(C(=O)O)c(Cl)c2n1,4.10
12,CC1(C)CC(Nc2ccc(Nc3ccccc3)cc2)CC(C)(C)N1,5.15
13,COc1ccccc1/C=C(/CC(=O)NCc1ccccc1)c1nc2ccccc2s1,4.34
14,COc1ccc(Cl)cc1NC(=O)CCS(=O)(=O)c1ccc(Br)cc1,5.09
15,Nc1ccc(N(CCO)CCO)cc1,5.66
16,Cc1cc(-c2n[nH]c(=S)n2/N=C/C=C/c2ccco2)n[nH]1,5.22
17,C=CCN(CC=C)C(=S)NC(=O)c1ccc([N+](=O)[O-])cc1,4.17
18,O=C(COc1ccccc1Cl)c1ccc[nH]1,5.54
19,CC1CC(=O)c2c(cc3c(-c4c(O)cc(O)c5c(O)c6c(cc45)OC(C)CC6=O)c(O)cc(O)c3c2O)O1 (stereo unspecified),6.39

row,SMILES,pIC50
1,COC(=O)C1=COC(C)C2CN3CCc4c([nH]c5ccccc45)C3CC12 (stereo unspecified),4.75
2,COc1cccc(-c2cc(C(=O)Nc3c(C)n(C)n(-c4ccccc4)c3=O)no2)c1,4.14
3,CC1=Nc2cccc3cccc(c23)N1,6.28
4,COc1ccc(C(=O)n2nc(-c3ccc(Cl)cc3)nc2N)cc1OC,4.15
5,CCOc1ccc(C(=O)NC(=S)Nc2ccc(N3CCC(C)CC3)cc2)cc1[N+](=O)[O-],4.26
6,CC1CCC/C(=C\Nc2ccc(C(=O)O)c(O)c2)C1=O (stereo unspecified),4.77
7,O=C(Nc1ccccc1)C1=C(O)CC(c2ccco2)CC1=Nc1ccccc1 (stereo unspecified),4.82
8,CN(C)c1ccc(N/C=C/C(=O)c2ccco2)cc1,4.51
9,O=C(Cc1csc(N2CCOCC2)n1)N/N=C/c1ccc(O)c(O)c1O,5.89
10,O=C(Nc1ccccc1F)c1coc(=O)c(Br)c1,5.15
11,O=[N+]([O-])c1cc(CN2CCCC2)c2cccnc2c1O,5.61
12,CCN(CC)c1ccc(NC2CC(=O)N(CCc3ccc(OC)cc3)C2=O)cc1 (stereo unspecified),5.16
13,Fc1ccccc1/C=C1\CCCC2=C1Nc1ncnn1C2c1ccccc1F (stereo unspecified),4.42
14,Cc1onc(-c2ccccc2Cl)c1C(=O)NCc1ccco1,5.97
15,CCOC(=O)N1CCN(C(=O)c2ccc3c(SCC(=O)O)c4c(nc3c2)CCC4)CC1,5.72
16,O=[N+]([O-])c1ccccc1NC(=S)N/N=C/c1ccc(O)c(O)c1,5.39
17,NC(=O)Cn1c(=O)n(Cc2ccco2)c(=O)c2c3c(sc21)CCCCC3,5.42
18,Cc1cc(C)c(S(=O)(=O)N2CCCCC2)c(C)c1N(C)S(=O)(=O)c1ccc(Cl)cc1,4.88
